“And” between values parts separate entries of the source, which are not always exact repeats. Identical values can stand only once. Like-named read-outs stand apart in the source and are kept apart here.
Legend:
[1] = In vitro metabolic stability, human liver microsomes; assay type: in vitro ADME
Protocol: Human Microsomal Stability of Compounds of the Invention
In Vitro Metabolic Stability
Incubation: The metabolic stability assay was performed by incubating each test compound in human liver microsomes at 37° C. and a protein concentration of 0.4 mg/mL. The metabolic reaction was initiated by the addition of an NADPH-regenerating system and quenched at various time points over a 60 minute incubation period by the addition of acetonitrile containing diazepam as internal standard. Control samples (containing no NADPH) were included (and quenched at 2, 30 and 60 minutes) to monitor for potential degradation in the absence of cofactor. The human liver microsomes used in this experiment were supplied by XenoTech, lot #1410230. Microsomal incubations were performed at a substrate concentration of 1 μM. Data analysis: Species scaling factors from Ring et al. (2011) JPharmSci, 100:4090-4110 were used to convert the in vitro CLint (μL/min/mg) to an in vivo CLint(mL/min/kg). Hepatic blood clearance and the corresponding hepatic extraction ratio (EH) were calculated using the well stirred model of hepatic extraction in each species, according to the “in vitro T1/2” approach described in Obach (1999) DrugMetab. Dispos. 27:1350-1359. The EH was then used to classify compounds as low(<0.3), intermediate (0.3-0.7), high (0.7-0.95) or very high (>0.95) extraction compounds. Predicted in vivo clearance values have not been corrected for microsomal or plasma protein binding. Species scaling calculations are based on two assumptions: 1) NADPH-dependent oxidative metabolism predominates over other metabolic routes (i.e. direct conjugative metabolism, reduction, hydrolysis, etc.), and; 2) rates of metabolism and enzyme activities in vitro are truly reflective of those that exist in vivo. If significant non-NADPH-mediated degradation is observed in microsome control samples, then assumption (1) is invalid and predicted clearance parameters are therefore not reported.

[2] = Mouse pharmacokinetics, IV and oral administration; assay type: in vivo; conditions: male C57BL/6 mice; for concentration at 0.017 h / concentration at 0.033 h / concentration at 0.083 h / concentration at 0.25 h / concentration at 0.5 h / concentration at 1 h / concentration at 2 h / concentration at 4 h / concentration at 7.5 h / concentration at 24 h: male, C57BL/6, mouse
Protocol: PF670462 (2HCl.0.4 mol. eq. isopropanol) and ZH3-138 (unionised) were administered to male C57BL/6 mice by IV (3 mg/kg) or orally (10 mg/kg). IV administration was achieved by bolus injection into the tail vein of mice using 1 mL syringe with 25G×1″ needle at a volume of 3 mL/kg. Oral administration was achieved by gavage needle at a volume of 3 mL/kg.
Intravenous (IV) and oral formulations were prepared using the same method. On the day of dosing, each of the solid compound was dissolved in DMSO to which an aqueous solution containing 10% Captisol was added. Hydrochloric acid (1 M) was used to modify pH for the formulation of ZH3-138 with the purpose of solubilising the compound (see Section B for the final pH of each formulation). The formulations of each compound were thoroughly vortexed, producing colourless solutions for all three compounds.
The systemic exposure of PF670462 and ZH3-138 was studied in non-fasted male C57BL/6 mice weighing 19.8-26.8 g. Mice had access to food and water ad libitum throughout the pre- and post-dose sampling period.
Compounds were dosed to mice by bolus injection into the lateral tail vein (3 mL/kg) for IV administration and by gavage (3 mL/kg) for oral administration. Following IV and oral administration, blood samples were collected up to 24 h (n=3 mice per time point) with a maximum of three samples from each mouse. Samples were collected via submandibular bleed (approximately 120 μL; conscious sampling). No urine samples were collected as mice were housed in bedded cages.
Blood was collected into polypropylene Eppendorf tubes containing heparin as anticoagulant and stabilisation cocktail (containing Complete® (a protease inhibitor cocktail) and potassium fluoride) to minimise the potential for ex vivo compound degradation in blood/plasma samples.
Once collected, blood samples were centrifuged immediately, supernatant plasma was removed, and stored at −80° C. until analysis by LC-MS.
Plasma samples were quantified against calibration standards prepared by spiking blank mouse plasma (50 μL) with solution standards (10 μL) obtained by diluting a stock solution of test compound (1 mg/mL in DMSO) with 50% acetonitrile in water. Diazepam (10 μL of 5 μg/mL in 50% acetonitrile/water) was added to all plasma calibration standards and samples as an internal standard (IS). The extraction of the test compound and IS from plasma was conducted using protein precipitation with acetonitrile. Protein precipitation was carried out by the addition of acetonitrile followed by vortexing and centrifugation (10,000 rpm) for 3 minutes to obtain supernatant for analysis using the LC-MS conditions described in Table 7.

## Nc1nccc(-c2c(-c3ccc(F)cc3)ncn2C2CCC(F)(F)CC2)n1 [ZH3-138, 4-(1-(4,4-Difluorocyclohexyl)-4-(4-fluorophenyl)-1H-imidazol-5-yl)pyrimidin-2-amine]
[1]; human liver microsomes
  Predicted EH (hepatic extraction ratio): <0.22
[1]; human liver microsomes, 1 μM
  microsomal CLint at 1 μM: < 7 µL/min/mg
[1]; human liver microsomes, 1 μM, 0.4 mg/mL protein, 37° C.
  half-life at 1 μM: > 4.25 h
[1]; scaled from human liver microsomes, well stirred model
  Predicted CLblood: <0.3 L/h/kg
[1]; scaled from human liver microsomes, read-out: Predicted CLint, in vivo
  CLint scaled at 1 μM: < 0.36 L/h/kg
[2]
  apparent blood clearance: low
  apparent blood volume of distribution: moderate
[2]; 24 h sampling period
  time post-dose for which plasma concentration was measurable (above LLQ): ≥ 24 h
[2]; IV 2.69 mg/kg, 0.017 h, 2.69 mg/kg
  Plasma Concentration, Individual: 11.4 µM and 9.81 µM
[2]; IV 2.69 mg/kg, 0.033 h, 2.69 mg/kg
  Plasma Concentration, Individual: 6.30 µM and 9.37 µM
[2]; IV 2.69 mg/kg, 0.083 h (actual sampling time was 0.10 h), 2.69 mg/kg
  Plasma Concentration, Individual: 5.94 µM and 5.95 µM
[2]; IV 2.69 mg/kg, 0.25 h, 2.69 mg/kg
  Plasma Concentration, Individual: 4.68 µM and 4.21 µM
[2]; IV 2.69 mg/kg, 0.5 h, 2.69 mg/kg
  Plasma Concentration, Individual: 4.12 µM and 4.28 µM
[2]; IV 2.69 mg/kg, 1.0 h, 2.69 mg/kg
  Plasma Concentration, Individual: 2.73 µM and 3.70 µM
[2]; IV 2.69 mg/kg, 2.0 h, 2.69 mg/kg
  Plasma Concentration, Individual: 5.24 µM and 4.00 µM
[2]; IV 2.69 mg/kg, 4.0 h, 2.69 mg/kg
  Plasma Concentration, Individual: 3.53 µM and 3.63 µM
[2]; IV 2.69 mg/kg, 7.5 h, 2.69 mg/kg
  Plasma Concentration, Individual: 1.77 µM and 1.54 µM
[2]; IV 2.69 mg/kg, 24 h, 2.69 mg/kg
  Plasma Concentration, Individual: 0.0287 µM and 0.0211 µM
[2]; oral 8.96 mg/kg, 0.25 h, 8.96 mg/kg
  Plasma Concentration, Individual: 14.7 µM and 8.96 µM
[2]; oral 8.96 mg/kg, 0.50 h, 8.96 mg/kg
  Plasma Concentration, Individual: 11.3 µM and 22.5 µM
[2]; oral 8.96 mg/kg, 1.0 h, 8.96 mg/kg
  Plasma Concentration, Individual: 16.2 µM and 14.4 µM
[2]; oral 8.96 mg/kg, 2.0 h, 8.96 mg/kg
  Plasma Concentration, Individual: 17.4 µM and 17.7 µM
[2]; oral 8.96 mg/kg, 4.0 h, 8.96 mg/kg
  Plasma Concentration, Individual: 10.2 µM and 15.1 µM
[2]; oral 8.96 mg/kg, 7.5 h, 8.96 mg/kg
  Plasma Concentration, Individual: 5.97 µM and 8.71 µM
[2]; oral 8.96 mg/kg, 24 h, 8.96 mg/kg
  Plasma Concentration, Individual: 0.0400 µM and 0.0758 µM
[2]; post-dose
  time of apparent secondary peak in concentration-time profile: 2 h
[2]; plasma, iv, 2.69 mg/kg, IV 2.69 mg/kg, 0.017 h, read-out: Plasma Concentration, Individual
  concentration at 0.017 h: 11.1 µM
[2]; plasma, iv, 2.69 mg/kg, IV 2.69 mg/kg, 0.017 h, read-out: Plasma Concentration, Mean
  concentration at 0.017 h: 10.8 µM
[2]; plasma, iv, 2.69 mg/kg, IV 2.69 mg/kg, 0.033 h, read-out: Plasma Concentration, Individual
  concentration at 0.033 h: 7.86 µM
[2]; plasma, iv, 2.69 mg/kg, IV 2.69 mg/kg, 0.033 h, read-out: Plasma Concentration, Mean
  concentration at 0.033 h: 7.84 µM
[2]; plasma, iv, 2.69 mg/kg, IV 2.69 mg/kg, 0.083 h (actual sampling time was 0.10 h), read-out: Plasma Concentration, Individual
  concentration at 0.083 h: 5.29 µM
[2]; plasma, iv, 2.69 mg/kg, IV 2.69 mg/kg, 0.083 h (actual sampling time was 0.10 h), read-out: Plasma Concentration, Mean
  concentration at 0.083 h: 5.73 µM
[2]; plasma, iv, 2.69 mg/kg, IV 2.69 mg/kg, 0.25 h, read-out: Plasma Concentration, Individual
  concentration at 0.25 h: 5.04 µM
[2]; plasma, iv, 2.69 mg/kg, IV 2.69 mg/kg, 0.25 h, read-out: Plasma Concentration, Mean
  concentration at 0.25 h: 4.65 µM
[2]; plasma, iv, 2.69 mg/kg, IV 2.69 mg/kg, 0.5 h, read-out: Plasma Concentration, Individual
  concentration at 0.5 h: 4.01 µM
[2]; plasma, iv, 2.69 mg/kg, IV 2.69 mg/kg, 0.5 h, read-out: Plasma Concentration, Mean
  concentration at 0.5 h: 4.14 µM
[2]; plasma, iv, 2.69 mg/kg, IV 2.69 mg/kg, 1.0 h, read-out: Plasma Concentration, Individual
  concentration at 1 h: 2.93 µM
[2]; plasma, iv, 2.69 mg/kg, IV 2.69 mg/kg, 1.0 h, read-out: Plasma Concentration, Mean
  concentration at 1 h: 3.12 µM
[2]; plasma, iv, 2.69 mg/kg, IV 2.69 mg/kg, 2.0 h, read-out: Plasma Concentration, Individual
  concentration at 2 h: 4.42 µM
[2]; plasma, iv, 2.69 mg/kg, IV 2.69 mg/kg, 2.0 h, read-out: Plasma Concentration, Mean
  concentration at 2 h: 4.55 µM
[2]; plasma, iv, 2.69 mg/kg, IV 2.69 mg/kg, 4.0 h, read-out: Plasma Concentration, Individual
  concentration at 4 h: 3.74 µM
[2]; plasma, iv, 2.69 mg/kg, IV 2.69 mg/kg, 4.0 h, read-out: Plasma Concentration, Mean
  concentration at 4 h: 3.63 µM
[2]; plasma, iv, 2.69 mg/kg, IV 2.69 mg/kg, 7.5 h, read-out: Plasma Concentration, Individual
  concentration at 7.5 h: 1.84 µM
[2]; plasma, iv, 2.69 mg/kg, IV 2.69 mg/kg, 7.5 h, read-out: Plasma Concentration, Mean
  concentration at 7.5 h: 1.72 µM
[2]; plasma, iv, 2.69 mg/kg, IV 2.69 mg/kg, 24 h, read-out: Plasma Concentration, Individual
  concentration at 24 h: 0.0237 µM
[2]; plasma, iv, 2.69 mg/kg, IV 2.69 mg/kg, 24 h, read-out: Plasma Concentration, Mean
  concentration at 24 h: 0.0245 µM
[2]; plasma, po, 8.96 mg/kg, oral 8.96 mg/kg, 0.25 h, read-out: Plasma Concentration, Individual
  concentration at 0.25 h: 12.1 µM
[2]; plasma, po, 8.96 mg/kg, oral 8.96 mg/kg, 0.25 h, read-out: Plasma Concentration, Mean
  concentration at 0.25 h: 11.9 µM
[2]; plasma, po, 8.96 mg/kg, oral 8.96 mg/kg, 0.50 h, read-out: Plasma Concentration, Individual
  concentration at 0.5 h: 13.7 µM
[2]; plasma, po, 8.96 mg/kg, oral 8.96 mg/kg, 0.50 h, read-out: Plasma Concentration, Mean
  concentration at 0.5 h: 15.8 µM
[2]; plasma, po, 8.96 mg/kg, oral 8.96 mg/kg, 1.0 h, read-out: Plasma Concentration, Individual
  concentration at 1 h: 13.9 µM
[2]; plasma, po, 8.96 mg/kg, oral 8.96 mg/kg, 1.0 h, read-out: Plasma Concentration, Mean
  concentration at 1 h: 14.8 µM
[2]; plasma, po, 8.96 mg/kg, oral 8.96 mg/kg, 2.0 h, read-out: Plasma Concentration, Individual
  concentration at 2 h: 13.8 µM
[2]; plasma, po, 8.96 mg/kg, oral 8.96 mg/kg, 2.0 h, read-out: Plasma Concentration, Mean
  concentration at 2 h: 16.3 µM
[2]; plasma, po, 8.96 mg/kg, oral 8.96 mg/kg, 4.0 h, read-out: Plasma Concentration, Individual
  concentration at 4 h: 11 µM
[2]; plasma, po, 8.96 mg/kg, oral 8.96 mg/kg, 4.0 h, read-out: Plasma Concentration, Mean
  concentration at 4 h: 12.1 µM
[2]; plasma, po, 8.96 mg/kg, oral 8.96 mg/kg, 7.5 h, read-out: Plasma Concentration, Individual
  concentration at 7.5 h: 6.59 µM
[2]; plasma, po, 8.96 mg/kg, oral 8.96 mg/kg, 7.5 h, read-out: Plasma Concentration, Mean
  concentration at 7.5 h: 7.09 µM
[2]; plasma, po, 8.96 mg/kg, oral 8.96 mg/kg, 24 h, read-out: Plasma Concentration, Individual
  concentration at 24 h: 0.0513 µM
[2]; plasma, po, 8.96 mg/kg, oral 8.96 mg/kg, 24 h, read-out: Plasma Concentration, Mean
  concentration at 24 h: 0.0557 µM
[2]; mouse, plasma, read-out: apparent half-life (converted)
  half-life: ~3 h
